Among the data in article PMC12667733 are ring closure, yield over several steps values, retold here.

This data set is described as follows: head-to-tail lactamisation of side-chain-protected linear peptides, PyBOP (2 equiv), DIPEA (3 equiv, added dropwise), overnight at rt under N2; then TFA global deprotection and prep RP-HPLC. The settings on record: the molecule shown is the open-chain precursor, DMF, 1.0 mM, 25.0 °C, 2 steps.

Consider `C[C@H](N)C(=O)N[C@@H](COC(C)(C)C)C(=O)N[C@@H](Cc1ccc(OC(C)(C)C)cc1)C(=O)N[C@@H](COC(C)(C)C)C(=O)N[C@@H](COC(C)(C)C)C(=O)N[C@@H](CCCCNC(=O)OC(C)(C)C)C(=O)N1CCC[C@H]1C(=O)N[C@@H](Cc1ccccc1)C(=O)N[C@@H](COC(C)(C)C)C(=O)O`, for which the ring closure, yield over several steps (27-membered ring) was 62%.

Regarding `Cc1c(C)c(S(=O)(=O)NC(=N)NCCC[C@H](NC(=O)CN)C(=O)N[C@H](C(=O)N[C@@H](CCCCNC(=O)OC(C)(C)C)C(=O)N[C@@H](C)C(=O)O)C(C)C)c(C)c2c1OC(C)(C)C2` [H-Gly-Arg(Pbf)-Val-Lys(Boc)-Ala-OH], the ring closure, yield over several steps (15-membered ring) came out at 63%.

As for `CC(C)C[C@H](NC(=O)CN)C(=O)N[C@@H](Cc1cn(C(c2ccccc2)(c2ccccc2)c2ccccc2)cn1)C(=O)N[C@@H](Cc1ccccc1)C(=O)N[C@@H](C)C(=O)N[C@@H](Cc1ccccc1)C(=O)N1CCC[C@H]1C(=O)O` [H-Gly-Leu-His(Trt)-Phe-Ala-Phe-Pro-OH], the ring closure, yield over several steps (21-membered ring) stood at 56%.

Regarding `CC(C)C[C@H](NC(=O)CN)C(=O)N[C@@H](COC(C)(C)C)C(=O)N[C@@H](Cc1ccccc1)C(=O)N[C@@H](C)C(=O)N[C@@H](Cc1ccccc1)C(=O)N1CCC[C@H]1C(=O)O` [H-Gly-Leu-Ser(tBu)-Phe-Ala-Phe-Pro-OH], the ring closure, yield over several steps (21-membered ring) was 54%.

Take `Cc1c(C)c(S(=O)(=O)NC(=N)NCCC[C@H](NC(=O)[C@H](Cc2ccc(OC(C)(C)C)cc2)NC(=O)CN)C(=O)N[C@@H](Cc2ccccc2)C(=O)N[C@@H](COC(C)(C)C)C(=O)O)c(C)c2c1OC(C)(C)C2` [H-Gly-Tyr(tBu)-Arg(Pbf)-Phe-Ser(tBu)-OH]: the ring closure, yield over several steps (15-membered ring) was 64%.

`CC(C)C[C@H](NC(=O)[C@@H]1CCCN1C(=O)[C@@H](NC(=O)[C@H](Cc1ccc(OC(C)(C)C)cc1)NC(=O)CN)C(C)C)C(=O)N[C@@H](Cc1cn(C(=O)OC(C)(C)C)c2ccccc12)C(=O)N1CCC[C@H]1C(=O)O` [H-Gly-Tyr(tBu)-Val-Pro-Leu-Trp(Boc)-Pro-OH]: the ring closure, yield over several steps (21-membered ring) was determined as 57%.

Regarding `CC(C)[C@H](NC(=O)CN)C(=O)N[C@@H](C)C(=O)N[C@@H](Cc1cn(C(=O)OC(C)(C)C)c2ccccc12)C(=O)N[C@@H](C)C(=O)O` [H-Gly-Val-Ala-Trp(Boc)-Ala-OH], the ring closure, yield over several steps (15-membered ring) worked out at 48%.

Turning to `CC(C)[C@H](NC(=O)CN)C(=O)N[C@@H](CCCCNC(=O)OC(C)(C)C)C(=O)N[C@@H](Cc1ccc(OC(C)(C)C)cc1)C(=O)N[C@@H](C)C(=O)O` [H-Gly-Val-Lys(Boc)-Tyr(tBu)-Ala-OH], for the setting “15-membered ring”, the ring closure, yield over several steps is 68%.

Turning to `CC(C)[C@H](NC(=O)[C@@H]1CCCN1C(=O)[C@@H](NC(=O)CN)C(C)C)C(=O)N[C@@H](Cc1cn(C(=O)OC(C)(C)C)c2ccccc12)C(=O)N[C@@H](C)C(=O)O` [H-Gly-Val-Pro-Val-Trp(Boc)-Ala-OH], the ring closure, yield over several steps (18-membered ring) stood at 51%.

On to `CC(C)C[C@H](NC(=O)CNC(=O)[C@H](Cc1cn(C(c2ccccc2)(c2ccccc2)c2ccccc2)cn1)NC(=O)[C@@H](NC(=O)CNC(=O)[C@@H](N)Cc1ccccc1)[C@@H](C)OC(C)(C)C)C(=O)N1CCC[C@H]1C(=O)N[C@@H](C)C(=O)N1CCC[C@H]1C(=O)O` [H-Phe-Gly-Thr(tBu)-His(Trt)-Gly-Leu-Pro-Ala-Pro-OH], for which the ring closure, yield over several steps (27-membered ring) was 57%.
